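Grown in 96-well plates, cells were treated for 48 hours with each compound at five concentrations. Insufficient inhibition: endpoint recorded as highest concentration tested. Abbreviation: GI50, concentration required for 50% inhibition of growth.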 Activity calls are given as the source filed them. Cut-off read from the data, not from the text of the source: active = GI50 up to about 1.1 µM and inactive = higher.
Legend:
Assay in all cases: NCI-60 cell line screen, 48 h
NCI-H226 = system: NCI-H226
SN12C = system: SN12C
Malme-3M = system: Malme-3M
SK-OV-3 = system: SK-OV-3
MDA-MB-435 = system: MDA-MB-435
A549 = system: A549
DU-145 = system: DU-145
786-0 = system: 786-0
K562 = system: K562
ACHN = system: ACHN
UACC-62 = system: UACC-62
SK-MEL-28 = system: SK-MEL-28
SNB-75 = system: SNB-75
HOP-92 = system: HOP-92
MDA-N = system: MDA-N
HL-60 = system: HL-60
SK-MEL-5 = system: SK-MEL-5
SNB-19 = system: SNB-19
SF-539 = system: SF-539
NCI/ADR-RES = system: NCI/ADR-RES

Measured: GI50

CN(C)c1ccc(C=c2c3ccccc3n3c2c2ccccc2[n+]3C)cc1
inactive: NCI-H226 3.08 µM | SK-OV-3 2.64 µM | A549 3.73 µM | DU-145 1.3 µM | SNB-75 2.17 µM | SNB-19 1.25 µM | NCI/ADR-RES 3.93 µM
active: SN12C 0.518 µM | Malme-3M 0.392 µM | MDA-MB-435 0.428 µM | 786-0 0.301 µM | K562 0.134 µM | ACHN 0.867 µM | UACC-62 0.305 µM | SK-MEL-28 0.521 µM | HOP-92 0.421 µM | MDA-N 0.526 µM | HL-60 0.051 µM | SK-MEL-5 0.112 µM | SF-539 0.513 µM

Cc1nc2nnc(CCCCCCCCc3nnc4nc(C)[nH]n34)n2[nH]1
inactive: NCI-H226 > 100 µM | SN12C > 100 µM | Malme-3M > 100 µM | SK-OV-3 > 100 µM | MDA-MB-435 > 100 µM | A549 > 100 µM | DU-145 > 100 µM | 786-0 > 100 µM | K562 > 100 µM | ACHN > 100 µM | SK-MEL-28 > 100 µM | SNB-75 > 100 µM | HOP-92 > 100 µM | MDA-N > 100 µM | HL-60 > 100 µM | SK-MEL-5 > 100 µM | SNB-19 > 100 µM | SF-539 > 100 µM | NCI/ADR-RES > 100 µM

Oc1ccccc1/C=N/c1ccc(-c2nc3ccccc3s2)cc1
inactive: NCI-H226 24.8 µM | SN12C 29.3 µM | Malme-3M 37.1 µM | SK-OV-3 27.2 µM | MDA-MB-435 26.6 µM | A549 36.7 µM | DU-145 45.7 µM | 786-0 29.2 µM | K562 24.6 µM | ACHN 22.4 µM | UACC-62 21.2 µM | SK-MEL-28 41.7 µM | SNB-75 36.1 µM | HOP-92 17.7 µM | MDA-N 29.6 µM | HL-60 11.8 µM | SK-MEL-5 15.1 µM | SNB-19 48.4 µM | SF-539 30.8 µM | NCI/ADR-RES 25.6 µM

C=C1CC2CCCC12C=O (stereo not drawn)
inactive: SN12C > 10 µM | Malme-3M > 10 µM | SK-OV-3 > 10 µM | MDA-MB-435 > 10 µM | A549 > 10 µM | DU-145 > 10 µM | 786-0 > 10 µM | K562 > 10 µM | ACHN > 10 µM | UACC-62 > 10 µM | SK-MEL-28 > 10 µM | SNB-75 > 10 µM | HOP-92 > 10 µM | MDA-N > 10 µM | HL-60 > 10 µM | SK-MEL-5 > 10 µM | SNB-19 > 10 µM | SF-539 > 10 µM | NCI/ADR-RES > 10 µM

O=C1CS(=O)(=O)C(c2cccc(Oc3ccccc3)c2)N1c1ccccc1 (stereo not drawn)
inactive: NCI-H226 21.4 µM | SN12C 19.4 µM | Malme-3M 20.5 µM | SK-OV-3 35.2 µM | MDA-MB-435 27.4 µM | A549 35.1 µM | DU-145 48 µM | 786-0 17.8 µM | K562 14.4 µM | ACHN 23.7 µM | UACC-62 12.4 µM | SK-MEL-28 26.2 µM | SNB-75 34.1 µM | HOP-92 14.6 µM | MDA-N 17.9 µM | HL-60 21.1 µM | SK-MEL-5 14.9 µM | SNB-19 43.3 µM | SF-539 21.3 µM | NCI/ADR-RES 22 µM

O=C1CC(CC(O)[C@@H]2CCCC[C@@H]2O)CC(=O)N1c1ccccc1 (stereo partly drawn)
inactive: NCI-H226 > 100 µM | SN12C > 100 µM | Malme-3M > 100 µM | MDA-MB-435 > 100 µM | A549 > 100 µM | DU-145 > 100 µM | 786-0 > 100 µM | K562 > 100 µM | ACHN > 100 µM | UACC-62 > 100 µM | SK-MEL-28 > 100 µM | SNB-75 > 100 µM | HOP-92 83.8 µM | MDA-N > 100 µM | HL-60 > 100 µM | SK-MEL-5 > 100 µM | SNB-19 > 100 µM | SF-539 > 100 µM | NCI/ADR-RES > 100 µM

Cn1c2c3ccc(Cl)cc3nc-2c(Cl)c2ccccc21
inactive: NCI-H226 23 µM | SN12C 14.4 µM | Malme-3M 18.2 µM | SK-OV-3 49.4 µM | MDA-MB-435 18.1 µM | A549 27.3 µM | DU-145 15.1 µM | 786-0 15.5 µM | K562 6.01 µM | ACHN 13.5 µM | UACC-62 20.4 µM | SK-MEL-28 17.7 µM | SNB-75 17.1 µM | HOP-92 15.7 µM | MDA-N 20.2 µM | HL-60 24.2 µM | SK-MEL-5 16.4 µM | SNB-19 22.9 µM | SF-539 19.9 µM | NCI/ADR-RES 24.8 µM

Cc1cc(O)cc(O)c1/N=N/c1ccc([N+](=O)[O-])cc1
inactive: SN12C 5.71 µM | Malme-3M 20.2 µM | SK-OV-3 > 100 µM | MDA-MB-435 13.8 µM | A549 30.1 µM | DU-145 22.9 µM | K562 3.27 µM | ACHN 17.1 µM | UACC-62 12.9 µM | SK-MEL-28 16.6 µM | SNB-75 18.5 µM | HOP-92 2.39 µM | MDA-N 15.6 µM | HL-60 5.16 µM | SK-MEL-5 12.6 µM | SNB-19 37.3 µM | SF-539 29 µM | NCI/ADR-RES 10.6 µM

Cn1c(SCc2c[nH]c3ccccc23)nnc1-c1ccc(Cl)cc1Cl
inactive: SN12C 17.1 µM | Malme-3M 18.9 µM | SK-OV-3 15.9 µM | MDA-MB-435 3 µM | A549 17.5 µM | DU-145 17.6 µM | 786-0 24.4 µM | K562 4.23 µM | ACHN 23.9 µM | UACC-62 12 µM | SK-MEL-28 36.2 µM | SNB-75 1.29 µM | HOP-92 12.6 µM | MDA-N 4.44 µM | HL-60 10.4 µM | SK-MEL-5 14.5 µM | SNB-19 16.8 µM | SF-539 3.14 µM | NCI/ADR-RES 6.07 µM

CCOC(=O)C1=C(O)C2C3CC4C2C(O)=C(C(=O)OCC)C2C1C3C42 (stereo not drawn)
inactive: NCI-H226 > 100 µM | SN12C > 100 µM | Malme-3M > 100 µM | SK-OV-3 > 100 µM | MDA-MB-435 > 100 µM | A549 > 100 µM | DU-145 > 100 µM | 786-0 > 100 µM | K562 > 100 µM | ACHN > 100 µM | UACC-62 > 100 µM | SK-MEL-28 > 100 µM | SNB-75 > 100 µM | HOP-92 95.5 µM | MDA-N > 100 µM | HL-60 24.8 µM | SK-MEL-5 > 100 µM | SNB-19 > 100 µM | SF-539 > 100 µM | NCI/ADR-RES 18.7 µM

Nc1ccc(Cn2ccc3c4c(N)nc(N)nc4ccc32)cc1
inactive: NCI-H226 4.27 µM | SK-OV-3 12.3 µM
active: SN12C < 0.0207 µM | Malme-3M 0.137 µM | MDA-MB-435 < 0.01 µM | A549 < 0.01 µM | DU-145 0.0123 µM | 786-0 < 0.0252 µM | K562 < 0.01 µM | ACHN < 0.01 µM | UACC-62 < 0.01 µM | SK-MEL-28 0.128 µM | SNB-75 0.804 µM | HOP-92 0.71 µM | MDA-N < 0.01 µM | HL-60 < 0.01 µM | SK-MEL-5 < 0.01 µM | SNB-19 0.3 µM | SF-539 < 0.0184 µM | NCI/ADR-RES 0.242 µM

CCC(C)[C@@H](NC1=C(Cl)C(=O)c2c(O)ccc(O)c2C1=O)C(=O)OC (stereo partly drawn)
inactive: NCI-H226 4.14 µM | SN12C 3.66 µM | Malme-3M 1.8 µM | SK-OV-3 6.68 µM | MDA-MB-435 3.55 µM | A549 3.89 µM | DU-145 5.19 µM | 786-0 2.43 µM | K562 3.59 µM | ACHN 3.91 µM | UACC-62 3.37 µM | SNB-75 7.26 µM | HOP-92 > 10 µM | MDA-N 3.56 µM | HL-60 2 µM | SK-MEL-5 2.02 µM | SNB-19 > 10 µM | SF-539 4.08 µM | NCI/ADR-RES 2.52 µM

C[O+]=C1C=CC(=C2SC(c3ccccc3)(c3ccccc3)c3ccccc32)C=C1.[O-][Cl+3]([O-])([O-])[O-]
inactive: NCI-H226 14.5 µM | SN12C 20 µM | Malme-3M 18.8 µM | SK-OV-3 38 µM | MDA-MB-435 18.6 µM | A549 22.5 µM | DU-145 26.2 µM | 786-0 17.2 µM | K562 26.7 µM | ACHN 24.8 µM | UACC-62 18.7 µM | SK-MEL-28 21.1 µM | SNB-75 26.9 µM | HOP-92 16.6 µM | MDA-N 21.1 µM | HL-60 17 µM | SK-MEL-5 16.6 µM | SNB-19 39.8 µM | SF-539 18.7 µM | NCI/ADR-RES 30.1 µM

C=C1CC(Cn2cc(C)c(=O)[nH]c2=O)(c2ccc(-c3ccccc3)cc2)OC1=O (stereo not drawn)
active: 786-0 0.817 µM | K562 0.296 µM | HL-60 0.415 µM | SK-MEL-5 1.07 µM
inactive: NCI-H226 14.3 µM | SN12C 2.54 µM | Malme-3M 2.11 µM | SK-OV-3 6.53 µM | MDA-MB-435 1.8 µM | A549 8.49 µM | DU-145 2.35 µM | ACHN 3.07 µM | UACC-62 1.76 µM | SK-MEL-28 1.78 µM | SNB-75 7.87 µM | HOP-92 1.95 µM | MDA-N 1.33 µM | SNB-19 13.8 µM | SF-539 2.07 µM | NCI/ADR-RES 1.33 µM

— ChEMBL document CHEMBL1201862, “PubChem BioAssay data set” (2004)
